Assay results as given in patent publication US12492173B2, “Herbicidal substituted N-tetrazolyl aryl carboxamides” (Bayer Aktiengesellschaft, priority 2019, dated 2025).

How the values were obtained:
Assay type in all cases: in vivo
Stellaria media [1] = test: Post-emergence herbicidal action, STEME; parameters: key: % herbicidal action vs untreated; 100 = plants died, 0 = like control
In short: (§1)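 Percent herbicidal effect was rated visually about 3 weeks after treatment, relative to untreated plants (0% = like control, 100% = dead). Compounds, formulated as WP or EC, went on as aqueous spray (600–800 l/ha, 0.2% wetting agent) to one-leaf-stage plants 2–3 weeks post-sowing in sandy loam.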

Matricaria inodora = test: Pre-emergence herbicidal action, MATIN; parameters: key to Herbicidal action against MATIN: % activity: 100 = plants have died, 0 = like control plants; conditions: for herbicidal activity MATIN: scored visually after 3 weeks vs untreated controls (100% = plants have died)
In short: (§2)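 Sown pots (sandy loam) sprayed pre-emergence → greenhouse → visual rating at 3 weeks; % activity vs untreated control, 100% = dead.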

Veronica persica = test: Post-emergence herbicidal action, VERPE; parameters: key: % herbicidal action vs untreated; 100 = plants died, 0 = like control
In short: as §1

Abutilon theophrasti = test: Pre-emergence herbicidal action, ABUTH; conditions: dosage 320 g/ha, scored visually after 3 weeks vs untreated controls (100% = plants have died)
In short: as §2

Stellaria media [2] = test: Pre-emergence herbicidal action, STEME; parameters: key to Herbicidal action against STEME: % activity: 100 = plants have died, 0 = like control plants; conditions: for herbicidal activity STEME: scored visually after 3 weeks vs untreated controls (100% = plants have died)
In short: as §2

Polygonum convolvulus = test: Pre-emergence herbicidal action, POLCO; conditions: for herbicidal activity POLCO: dosage 320 g/ha, scored visually after 3 weeks vs untreated controls (100% = plants have died)
In short: as §2

[3] = comparative experiment, post-emergence, 5 g of a.i./ha
[4] = comparative experiment, 20 g of a.i./ha

Compound	herbicidal action STEME (Stellaria media [1]; Dosage 80 g/ha)	herbicidal activity MATIN (Matricaria inodora; dosage 320 g/ha)	herbicidal action VERPE (Veronica persica; Dosage 80 g/ha)	herbicidal activity ABUTH (Abutilon theophrasti)	herbicidal activity STEME (Stellaria media [2]; dosage 320 g/ha)	herbicidal activity POLCO (Polygonum convolvulus)	herbicidal action STEME (Stellaria media [1]; post-emergence, dosage 80 g/ha)	herbicidal action VERPE (Veronica persica; post-emergence, dosage 80 g/ha)	Herbicidal action against STEME (Stellaria media [1]; post-emergence, dosage 80 g/ha)	Herbicidal action against VERPE (Veronica persica; [3])	Herbicidal action against VERPE (Veronica persica; post-emergence, dosage 80 g/ha)	Herbicidal action against POLCO (Polygonum convolvulus; [4])	Herbicidal action against STEME (Stellaria media [2]; [4])	Herbicidal action against MATIN (Matricaria inodora; [4])	herbicidal action MATIN (Matricaria inodora; dosage 320 g/ha)	herbicidal action STEME (Stellaria media [2]; dosage 320 g/ha)
CCn1nnnc1NC(=O)c1ccc(C(F)F)c(CSC)c1C [Example 2-107]	100	100%	100	100%	90%	80%										
Cc1c(C(=O)Nc2nnnn2C)ccc(C(F)F)c1CS(C)(=O)=O [Example 1-109]	100	90%	100	100%		90%										
Cn1nnnc1NC(=O)c1ccc(C(F)(F)F)c(CS(C)(=O)=O)c1F [Example 1-244]	100	100%	100	100%	90%											
CCCn1nnnc1NC(=O)c1ccc(C(F)F)c(CSC)c1Cl [Example 3-320]	100	100%	100	100%	100%	90%										
Cn1nnnc1NC(=O)c1ccc(C(F)(F)F)c(C[S+](C)[O-])c1F (stereo not drawn) [Example 1-243]	100	100%	100	100%	90%											
Cc1ccc(C(=O)Nc2nnnn2C)c(Cl)c1CS(C)(=O)=O [Example 1-289]	100	100%	100	90%	90%	80%										
CCCn1nnnc1NC(=O)c1ccc(C(F)(F)F)c(C[S+](C)[O-])c1Br (stereo not drawn) [Example 3-381]		100%		100%	90%	80%	100%	100%								
CCCn1nnnc1NC(=O)c1ccc(C(F)(F)F)c(CSCC)c1Cl [Example 3-299]	100	100%	100	100%	90%	90%										
CCCn1nnnc1NC(=O)c1ccc(C(F)(F)F)c(CSC)c1Cl [Example 3-296]	100	100%	100	100%	100%	90%										
COc1c(C(=O)Nc2nnnn2C)ccc(C(F)(F)F)c1CSC [Example 1-134]	100	100%	100	100%		80%			90	100	100	30				
CCCn1nnnc1NC(=O)c1ccc(C(F)(F)F)c(CS(=O)(=O)CC)c1C [Example 3-88]	100	100%	90	100%	80%											
CCCn1nnnc1NC(=O)c1ccc(C(F)(F)F)c(CSC)c1OC [Example 3-134]	100	100%	100	100%	100%	80%										
CSCc1c(C(F)(F)F)ccc(C(=O)Nc2nnnn2C)c1SC [Example 1-161]	100	100%	100	100%	100%											
CCn1nnnc1NC(=O)c1ccc(C(F)(F)F)c(C[S+](C)[O-])c1OC (stereo not drawn) [Example 2-135]	100	100%	100	100%	90%	90%										
CCCn1nnnc1NC(=O)c1ccc(C(F)F)c(C[S+]([O-])CC)c1Cl (stereo not drawn) [Example 3-324]	100	100%		100%	100%	100%										
CCn1nnnc1NC(=O)c1ccc(C(F)(F)F)c(CS(C)(=O)=O)c1Br [Example 2-382]	100	100%	100	100%	90%	90%										

Compound	herbicidal action STEME (Stellaria media [1]; Dosage 80 g/ha)	herbicidal activity MATIN (Matricaria inodora; dosage 320 g/ha)	herbicidal action VERPE (Veronica persica; Dosage 80 g/ha)	herbicidal activity ABUTH (Abutilon theophrasti)	herbicidal activity STEME (Stellaria media [2]; dosage 320 g/ha)	herbicidal activity POLCO (Polygonum convolvulus)	herbicidal action STEME (Stellaria media [1]; post-emergence, dosage 80 g/ha)	herbicidal action VERPE (Veronica persica; post-emergence, dosage 80 g/ha)	Herbicidal action against STEME (Stellaria media [1]; post-emergence, dosage 80 g/ha)	Herbicidal action against VERPE (Veronica persica; [3])	Herbicidal action against VERPE (Veronica persica; post-emergence, dosage 80 g/ha)	Herbicidal action against POLCO (Polygonum convolvulus; [4])	Herbicidal action against STEME (Stellaria media [2]; [4])	Herbicidal action against MATIN (Matricaria inodora; [4])	herbicidal action MATIN (Matricaria inodora; dosage 320 g/ha)	herbicidal action STEME (Stellaria media [2]; dosage 320 g/ha)
CCSCc1c(C(F)(F)F)ccc(C(=O)Nc2nnnn2C)c1C [Example 1-86]		100%		100%		100%	100%	90%								
CSCc1c(C(F)(F)F)ccc(C(=O)Nc2nnnn2C)c1Br [Example 1-380]		100%		100%	90%		100%	100%								
CCCn1nnnc1NC(=O)c1ccc(C(F)(F)F)c(C[S+](C)[O-])c1Cl (stereo not drawn) [Example 3-297]		100%		100%	100%		100%	100%								
Cn1nnnc1NC(=O)c1ccc(C(F)(F)F)c(C[S+](C)[O-])c1Br (stereo not drawn) [Example 1-381]		100%		100%	90%	90%	100%	100%					90			
CSCc1c(C(F)(F)F)ccc(C(=O)Nc2nnnn2C)c1F [Example 1-242]	100	100%	100	100%	90%	80%										
CSCc1c(C(F)(F)F)ccc(C(=O)Nc2nnnn2C)c1Cl [Example 1-296]		100%		100%	100%		100%	100%								
C=CCSCc1c(C(F)(F)F)ccc(C(=O)Nc2nnnn2C)c1Cl [Example 1-308]		100%		100%	100%	100%	100%	80%								
CCn1nnnc1NC(=O)c1ccc(C(F)(F)F)c(CSC)c1SC [Example 2-161]		100%		100%	100%	90%	100%	100%								
Cc1c(C(=O)Nc2nnnn2C)ccc(C(F)(F)F)c1CS(C)(=O)=O [Example 1-85]	100	100%	100	100%	100%	90%										
CCn1nnnc1NC(=O)c1ccc(C(F)(F)F)c(C[S+](C)[O-])c1Br (stereo not drawn) [Example 2-381]		100%		100%	90%		100%	100%								
CCn1nnnc1NC(=O)c1ccc(C)c(CSC)c1Cl [Example 2-287]	100	100%	80		80%											
CCCn1nnnc1NC(=O)c1ccc(C(F)(F)F)c(CSC)c1Br [Example 3-380]	100	100%	80	100%		80%										
Cn1nnnc1NC(=O)c1ccc(C(F)(F)F)c(CS(C)(=O)=O)c1Cl [Example 1-298]		100%		100%	100%		100%	100%		90						
Cn1nnnc1NC(=O)c1ccc(C(F)(F)F)c(C[S+](C)[O-])c1Cl (racemic) [Example 1-297]		100%		100%	90%		100%	100%						100		
CCn1nnnc1NC(=O)c1ccc(S(C)(=O)=O)c(CS(C)(=O)=O)c1C [Example 2-39]	100		100												100%	100%
